ChEMBL document CHEMBL1201862, “PubChem BioAssay data set” (2004)
Each block holds one compound with its values, some of them ahead of it. Calls of active or inactive are those of the source.

Experiments:
[1] = HepG2 cell cytotoxicity, dose response, cytotoxicity control, plate reader, dry powder, set 6 (AID 743311); type: functional, cell-based
[2] = A549 cell cytotoxicity, dose response, cytotoxicity control, plate reader, dry powder, set 6 (AID 743312); type: functional, cell-based
cells = settings: HEK293
NADPH oxidase 1 = biological target: T1, NADPH oxidase 1 (Homo sapiens, UniProt Q9Y5S8); assay: Late-stage luminescence-based cell-based dose response assay to identify inhibitors of NADPH oxidase 1 (NOX1): Synthesized analogs.; type: functional
T1 sequence (Q9Y5S8 whole entry): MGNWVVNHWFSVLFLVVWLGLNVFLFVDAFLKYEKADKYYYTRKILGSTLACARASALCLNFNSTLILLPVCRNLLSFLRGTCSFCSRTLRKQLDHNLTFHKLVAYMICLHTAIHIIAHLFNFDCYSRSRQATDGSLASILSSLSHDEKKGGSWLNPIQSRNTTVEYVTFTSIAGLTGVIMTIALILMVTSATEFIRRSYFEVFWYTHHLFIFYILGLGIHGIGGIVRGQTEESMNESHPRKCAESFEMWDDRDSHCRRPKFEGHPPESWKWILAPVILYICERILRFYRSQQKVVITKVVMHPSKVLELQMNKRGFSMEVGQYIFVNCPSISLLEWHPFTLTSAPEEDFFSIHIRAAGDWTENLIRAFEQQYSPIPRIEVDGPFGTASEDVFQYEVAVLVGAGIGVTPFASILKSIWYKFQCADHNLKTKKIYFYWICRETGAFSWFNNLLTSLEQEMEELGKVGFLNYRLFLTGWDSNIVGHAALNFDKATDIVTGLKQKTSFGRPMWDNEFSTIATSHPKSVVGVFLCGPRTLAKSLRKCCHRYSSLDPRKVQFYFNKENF

[3] = biological target: Hepatocyte nuclear factor 4-alpha (Homo sapiens, UniProt P41235); type: functional, cell-based;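 also: biochemical luminescence-based dose-response counterscreen measuring inhibition of HNF4 dimerization, run alongside a screen for blockers of ABHD5–perilipin-5 interaction; split luciferase complementation of HNF4 fusion proteins in cell lysate measuring dimerization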
Chain of Hepatocyte nuclear factor 4-alpha (P41235 whole entry, the tested form may be a part): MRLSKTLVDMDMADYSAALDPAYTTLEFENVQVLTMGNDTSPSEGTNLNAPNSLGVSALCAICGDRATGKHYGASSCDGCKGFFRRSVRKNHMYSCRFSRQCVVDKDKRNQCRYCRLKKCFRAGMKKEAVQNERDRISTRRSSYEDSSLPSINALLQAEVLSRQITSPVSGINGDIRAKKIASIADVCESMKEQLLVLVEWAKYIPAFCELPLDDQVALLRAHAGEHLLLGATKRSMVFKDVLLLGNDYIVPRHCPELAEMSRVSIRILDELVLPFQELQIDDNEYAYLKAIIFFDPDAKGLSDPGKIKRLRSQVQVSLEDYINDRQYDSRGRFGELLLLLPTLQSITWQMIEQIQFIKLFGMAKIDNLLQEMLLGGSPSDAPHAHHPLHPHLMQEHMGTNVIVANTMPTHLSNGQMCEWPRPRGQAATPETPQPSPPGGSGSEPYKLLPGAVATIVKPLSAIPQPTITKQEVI

[4] = half-maximal inhibitory concentration for glucagon-like peptide-1 release, STC-1 cell line, dose-response (AID 1117345); type: functional, cell-based
[5] = Dose-response inhibition of insulin secretion in a rat insulinoma line at 5 mM glucose (AID 1117331); type: functional, cell-based; settings: INS-1E
[6] = Glucagon-like peptide 1 release potency, NCI-H716 cell line, dose-response, half-maximal inhibitory concentration (AID 1117344); type: functional, cell-based
[7] = inhibitors of Vif binding to APOBEC3G peptide, primary screen, biochemical, TR-FRET, GST-Vif 1-94, biotin-A3G peptide, dose response retest (AID 1117319); type: functional;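 also: TR-FRET signal of purified GST-Vif binding a biotinylated A3G peptide; inhibitors lower the FRET signal by blocking Vif and A3G binding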
Leucine aminopeptidase = biological target: T2, Leucine aminopeptidase (Plasmodium falciparum 3D7, UniProt Q8IL11); assay: P. falciparum M17LAP inhibitors, primary screen, biochemical, fluorogenic H-Leu-NHMec substrate, 1536-well (AID 1619); type: functional
T2 sequence (Q8IL11 whole entry): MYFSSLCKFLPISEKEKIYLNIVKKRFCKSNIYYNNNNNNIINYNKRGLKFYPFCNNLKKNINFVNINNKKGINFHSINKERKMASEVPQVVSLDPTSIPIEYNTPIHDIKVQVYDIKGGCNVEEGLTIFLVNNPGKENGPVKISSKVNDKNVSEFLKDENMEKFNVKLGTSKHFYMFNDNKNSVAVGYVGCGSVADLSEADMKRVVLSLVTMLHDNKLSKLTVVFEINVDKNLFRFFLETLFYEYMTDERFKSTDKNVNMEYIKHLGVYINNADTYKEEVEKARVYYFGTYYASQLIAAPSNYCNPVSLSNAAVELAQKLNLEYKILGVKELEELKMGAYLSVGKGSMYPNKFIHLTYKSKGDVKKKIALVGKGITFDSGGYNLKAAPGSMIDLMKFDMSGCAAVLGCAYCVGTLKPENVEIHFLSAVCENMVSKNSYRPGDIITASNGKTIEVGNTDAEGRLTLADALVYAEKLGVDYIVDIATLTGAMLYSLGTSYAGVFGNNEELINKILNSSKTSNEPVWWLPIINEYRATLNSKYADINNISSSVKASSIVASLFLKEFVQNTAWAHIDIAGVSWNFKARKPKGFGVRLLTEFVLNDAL

[8] = biological target: T3, Rac GTPase-activating protein 1 (Homo sapiens, UniProt Q9H0H5); assay: MgcRacGAP GTPase-activating activity inhibitors, confirmation, biochemical, ADP Hunter fluorescence, primary and confirmatory (AID 624330); type: functional
T3 sequence (Q9H0H5 whole entry): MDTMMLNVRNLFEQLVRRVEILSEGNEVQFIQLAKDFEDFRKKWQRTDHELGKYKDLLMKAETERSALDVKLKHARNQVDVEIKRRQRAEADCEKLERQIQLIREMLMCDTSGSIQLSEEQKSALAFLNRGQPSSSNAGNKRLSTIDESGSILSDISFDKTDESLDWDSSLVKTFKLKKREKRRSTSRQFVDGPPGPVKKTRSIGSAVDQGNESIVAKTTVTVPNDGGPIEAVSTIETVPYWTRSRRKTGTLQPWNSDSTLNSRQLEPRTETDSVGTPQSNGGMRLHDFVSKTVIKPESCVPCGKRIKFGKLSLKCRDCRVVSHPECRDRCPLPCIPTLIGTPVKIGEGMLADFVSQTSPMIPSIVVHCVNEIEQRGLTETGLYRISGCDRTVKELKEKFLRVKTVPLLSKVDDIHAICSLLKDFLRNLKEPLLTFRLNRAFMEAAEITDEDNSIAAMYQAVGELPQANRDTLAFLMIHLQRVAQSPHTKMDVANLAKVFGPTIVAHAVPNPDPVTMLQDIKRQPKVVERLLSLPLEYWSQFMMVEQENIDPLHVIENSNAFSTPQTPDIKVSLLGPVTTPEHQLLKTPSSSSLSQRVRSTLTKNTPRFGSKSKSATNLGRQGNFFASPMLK

SMILES: c1ccc(-c2ccc(OCCn3cnc4ccccc43)cc2)cc1
AC50 [1]: 5.92 µM (active) | AC50 [2]: 0.66 µM (active) | AC50 (cells): > 52 µM (inactive)

IC50 (NADPH oxidase 1): > 50 µM (not active) | IC50 [3]: 12.2 µM (inactive)
SMILES: C=CC(=O)N1c2ccccc2Sc2ccc(NC(=O)OCC)cc21

SMILES: O=C(CBr)Nc1ccc(Cl)cc1C(=O)c1ccccc1F
IC50 [4]: > 40 µM (inactive) | IC50 [5]: > 33.3 µM (inactive) | IC50 [6]: > 40 µM (inactive)

IC50 [7]: > 100 µM (active) | IC50 (Leucine aminopeptidase): 35.2 µM (active) | IC50 [8]: 56.1 µM (active)
SMILES: COc1ccc2c(c1OC)C(=O)OC2CC(=O)c1ccc(O)c(O)c1 (stereo unspecified)
